The test system of experiment [1] is maximum electroshock seizure (MES) model. Briefly: Maximum electroshock seizure (MES) model test. The experiment is classed as in vivo, mice. As to conditions: for responders at 50 mg/kg / responders at 100 mg/kg: Mus musculus, po, 1 h, Slc: ddY male mice, 3 per group, electrical stimulation 1 hour after administration, inhibition of hind limb extension, read-out: MES (positive number/tested number) (converted); for responders at 50 mg/kg: 50 mg/kg oral; for responders at 100 mg/kg: 100 mg/kg oral. In a few lines:
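Tonic hind-limb extension was elicited by corneal electroshock (60 Hz, 25 mA, 0.2 s) 1 h after oral dosing. Test compounds were given at 50 or 100 mg/kg to groups of 3 male Slc: ddY mice (20-30 g), vehicle controls receiving 0.5% tragacanth or 0.5% methylcellulose solution.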

Experiment [2] concerns subcutaneously pentetrazol-injected model (scPTZ). Briefly: Subcutaneously pentetrazol-injected model (scPTZ) test. It is filed as in vivo, mice. The following applies: pentetrazol 85 mg/kg s.c. after 1 hour; for responders at 100 mg/kg / responders at 50 mg/kg: Mus musculus, po, 1 h, Slc: ddY male mice, 3 per group, observed 30 minutes for clonic convulsion, read-out: scPTZ (positive number/tested number) (converted); for responders at 100 mg/kg: 100 mg/kg oral; for responders at 50 mg/kg: 50 mg/kg oral. The essentials:
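Pentetrazol (85 mg/kg, s.c.) was injected one hour after oral test compound at 50 or 100 mg/kg in groups of three male Slc:ddY mice weighing 20-30 g; vehicle controls got 0.5% tragacanth or 0.5% methylcellulose.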

Regarding `NC(=O)Cc1ccc([N+](=O)[O-])cc1-c1ccccc1F` [Example 113, 2-(2′-fluoro-5-nitrobiphenyl-2-yl)acetamide], in experiment [1], the responders at 50 mg/kg was 66.7%. The responders at 100 mg/kg in experiment [1] was 100%; in experiment [2], 33.3%.
As for `NC(=O)Cc1ccccc1-c1cccc(F)c1F` [Example 20, 2-(2′,3′-difluorobiphenyl-2-yl)acetamide], in experiment [1], the responders at 50 mg/kg is 66.7% and the responders at 100 mg/kg is 100%. Moreover, the “anticonvulsant action in maximum electroshock seizure (MES) model test” value in experiment [1] (mice, oral 50 or 100 mg/kg, 1 hour after administration) is on record as “anticonvulsant action was observed”. Also, in experiment [2], the responders at 50 mg/kg is 66.7% and the responders at 100 mg/kg is 66.7%. In experiment [2] (mice, oral 50 or 100 mg/kg), the “anticonvulsant action in subcutaneously pentetrazol-injected model (scPTZ) test” value is “anticonvulsant action was observed”.
As for `CNC(=O)C1(c2ccccc2-c2ccccc2F)CC1` [Example 157, 1-(2′-fluorobiphenyl-2-yl)-N-methyl-cyclopropane-carboxamide], in experiment [1], the responders at 50 mg/kg was 33.3% and the responders at 100 mg/kg is 100%. In experiment [2], the responders at 50 mg/kg is 66.7% and the responders at 100 mg/kg is 66.7%.
As to `NC(=O)Cc1cc(C(F)(F)F)ccc1-c1cccc(F)c1` [Example 144], the figures for the responders at 100 mg/kg in experiment [1] and in experiment [2] were 33.3% and 66.7%, respectively.
In the case of `CCNC(=O)Cc1ccccc1-c1ccccc1C(F)(F)F` [Example 8, N-ethyl-2-[2′-(trilluoromethyl)biphenyl-2-yl]acetamide], the responders at 50 mg/kg in experiment [1] and in experiment [2] was 0% throughout. Further, the responders at 100 mg/kg is 100% in experiment [1] and 66.7% in experiment [2].
`NC(=O)Cc1ccc(F)cc1-c1cccc(Cl)c1` [Example 43]: in experiment [1], the responders at 50 mg/kg is 66.7% and the responders at 100 mg/kg is 66.7%. Moreover, in experiment [2], the responders at 50 mg/kg was 33.3% and the responders at 100 mg/kg was 66.7%.
With `CN(C)C(=O)Cc1ccccc1-c1ccc(F)cc1` [Example 24], in experiment [1], the responders at 50 mg/kg is 33.3% and the responders at 100 mg/kg is 100%. Moreover, the responders at 100 mg/kg in experiment [2] is 0%.
Take `CNC(=O)Cc1ccccc1-c1ccc(Cl)cc1C(F)(F)F` [Example 105]: the responders at 100 mg/kg in experiment [1] is 0%; in experiment [2], 66.7%.
For `NC(=O)Cc1ccccc1-c1ccccc1C(F)(F)F` [Example 6], the responders at 50 mg/kg in experiment [1] is 0%. Also, the figures for the responders at 100 mg/kg in experiment [1] and in experiment [2] were 100% and 33.3%, respectively.
On to `CNC(=O)Cc1ccccc1-c1ccccc1F` [Example 28, 2-(2′-fluorobiphenyl-2-yl)-N-methylacetamide], for which, in experiment [1], the responders at 50 mg/kg was 0% and the responders at 100 mg/kg was 100%. Besides, in experiment [2], the responders at 50 mg/kg is 0% and the responders at 100 mg/kg was 66.7%.
Turning to `NC(=O)C(F)(F)c1ccccc1-c1cccc(Cl)c1` [Example 171, 2-(3′-chlorobiphenyl-2-yl)-2,2-difluoroacetamide], in experiment [1], the responders at 50 mg/kg was 100% and the responders at 100 mg/kg is 100%. In experiment [2], the responders at 50 mg/kg was 33.3% and the responders at 100 mg/kg was 100%.
On to `CNC(=O)Cc1ccccc1-c1cccc(SC)c1` [Example 100], for which the responders at 100 mg/kg in experiment [1] was 0%; in experiment [2], 100%.
As for `CNC(=O)Cc1cc(F)ccc1-c1ccccc1` [Example 45, 2-(4-fluorobiphenyl-2-yl)-N-methylacetamide], in experiment [1], the responders at 50 mg/kg was 100% and the responders at 100 mg/kg is 100%. Further, the responders at 100 mg/kg in experiment [2] is 0%.
`CNC(=O)Cc1ccc(C(F)(F)F)cc1-c1ccccc1` [Example 33]: in experiment [1], the responders at 50 mg/kg was 33.3% and the responders at 100 mg/kg is 66.7%. Besides, the responders at 100 mg/kg in experiment [2] is 33.3%.
Regarding `NC(=O)C(O)c1ccccc1-c1cc(F)cc(Cl)c1` (stereo not shown) [Example 191, 2-(3′-chloro-5′-fluorobiphenyl-2-yl)-2-hydroxyacetamide], in experiment [1], the responders at 50 mg/kg is 100% and the responders at 100 mg/kg is 100%. Besides, in experiment [2], the responders at 50 mg/kg is 33.3% and the responders at 100 mg/kg is 100%.
For `NC(=O)Cc1ccccc1-c1ccc(Cl)c(F)c1` [Example 66], the values for the responders at 100 mg/kg in experiment [1] and in experiment [2] were 66.7% and 33.3%, respectively.
Turning to `CN(C)C(=O)Cc1ccccc1-c1ccc(C(F)(F)F)cc1` [Example 3, N,N-dimethyl-2-[4′-(trifluoromethyl)biphenyl-2-yl]acetamide], in experiment [1], the responders at 50 mg/kg was 100%. The figures for the responders at 100 mg/kg in experiment [1] and in experiment [2] were 100% and 33.3%, respectively.
With `NC(=O)Cc1ccc(C(F)(F)F)cc1-c1ccccc1` [Example 32], in experiment [1], the responders at 50 mg/kg is 33.3% and the responders at 100 mg/kg was 100%. In experiment [2], the responders at 100 mg/kg is 0%.
Consider `CNC(=O)Cc1cc(Cl)ccc1-c1ccc(C(F)(F)F)cc1` [Example 143], for which the responders at 100 mg/kg in experiment [1] was 0%; in experiment [2] it was 100%.
Taken in the same sequence, the figures for `N#Cc1ccc(-c2ccccc2CC(N)=O)c(F)c1` [Example 106] were 0% and 66.7%.
As for `NC(=O)Cc1ccccc1-c1cc(F)cc(C(F)(F)F)c1` [Example 73, 2-[3′-fluoro-5′-(trifluoromethyl)biphenyl-2-yl]acetamide], the responders at 50 mg/kg in experiment [1] was 33.3%; in experiment [2] it was 0%. The responders at 100 mg/kg in experiment [1] and in experiment [2] was 100% throughout.
For the compound `CN(C)C(=O)Cc1ccccc1-c1cccc(Cl)c1` [Example 15], the responders at 50 mg/kg in experiment [1] is 0%. Moreover, the responders at 100 mg/kg in experiment [1] was 66.7%; in experiment [2] it was 0%.
Turning to `NC(=O)Cc1cc(Cl)ccc1-c1cccc(F)c1` [Example 139], the figures for the responders at 100 mg/kg in experiment [1] and in experiment [2] were 66.7% and 33.3%, respectively.
Turning to `NC(=O)C(O)c1ccccc1-c1ccc(F)cc1` (stereo not shown) [Example 179], in experiment [1], the responders at 50 mg/kg is 33.3% and the responders at 100 mg/kg is 100%. The responders at 100 mg/kg in experiment [2] was 33.3%.
Take `NC(=O)C(O)c1ccccc1-c1cc(F)c(F)c(F)c1` (stereo not shown) [Example 193, 2-hydroxy-2-(3′,4′,5′-trifluorobiphenyl-2-yl)acetamide]: in experiment [1], the responders at 50 mg/kg was 100% and the responders at 100 mg/kg is 100%. Also, in experiment [2], the responders at 50 mg/kg is 100% and the responders at 100 mg/kg was 66.7%.
With `CNC(=O)C1(c2ccccc2-c2cccc(F)c2)CC1` [Example 159, 1-(3′-fluorobiphenyl-2-yl)-N-methyl-cyclopropane-carboxamide], in experiment [1], the responders at 50 mg/kg was 33.3% and the responders at 100 mg/kg was 66.7%. In experiment [2], the responders at 50 mg/kg is 33.3% and the responders at 100 mg/kg is 66.7%.
Consider `CCNC(=O)Cc1cc(Cl)ccc1-c1ccccc1` [Example 37], for which the responders at 100 mg/kg in experiment [1] was 0%; in experiment [2], 33.3%.
For the compound `CNC(=O)Cc1ccccc1-c1cccc(Cl)c1` [Example 14], in experiment [1], the responders at 50 mg/kg was 0% and the responders at 100 mg/kg was 100%. The responders at 100 mg/kg in experiment [2] was 0%.
As to `CN(C)C(=O)Cc1ccccc1-c1ccc(Cl)cc1` [Example 12], in experiment [1], the responders at 50 mg/kg is 0% and the responders at 100 mg/kg was 100%. Further, in experiment [2], the responders at 100 mg/kg is 33.3%.

The values are drawn from patent publication US20120142771A1, “BIPHENYLACETAMIDE DERIVATIVE” (Dainippon Sumitomo Pharma Co., Ltd., priority 2008, published 2012).
